What all share (type): cell-based
Data set [1] relates to corticotroph tumor cell line AtT-20. Description: Proliferation assay (WST-1 assay). The note with it: 96 hours treatment, different doses, WST-1, vs vehicle = 100%. As for the experimental part: AtT-20 cells were treated for 96 hours with different doses of (A) 17-AAG, (B) silibinin, or (C) novobiocin.
Cell proliferation was measured with the WST-1 proliferation assay (Roche Applied Science). This assay measures the activity of the mitochondrial succinate dehydrogenase. After 4 days of treatment with different HSP90 inhibitors, the WST-1 reagent was added to AtT-20 cell cultures in 96-well plates to a final dilution of 1:10. The cells were incubated for 2 hours and then the absorbance of the reaction product was measured with an ELISA reader at 440 nm, following the manufacturer's instructions.

In data set [2] the test system is GR (glucocorticoid receptor) protein. The experiment in a line: Western blot, induction of GR degradation. Particulars: AtT-20 cells. As for the experimental part:
(§1) AtT-20 cells were treated with (A) 17-AAG, (B) silibinin, or (C) novobiocin. At the end of the treatment, the GR, Cdk1 and actin proteins were detected by Western blot.
(§2) AtT-20 cells in 6-well plates were treated with different HSP90 inhibitors for the times indicated in each experiment. At the end of the treatment, cell lysates were prepared in lysis buffer supplemented with protease and phosphatase inhibitor cocktail (Roche). Samples of the lysates were separated by PAGE and blotted onto membranes using standard western blot procedures with gels and buffers from Invitrogen. After blocking the membranes with 5% non-fat dry milk, primary antibodies against GR (H-300, Santa Cruz), Cdk1 (BD Transduction Laboratories), and actin (Cell Signalling) were added. Anti-mouse and anti-rabbit horseradish peroxidase-conjugated secondary antibodies were used to detect the primary antibodies. The detection was carried out using Lumilight (Roche) or ECL-Plus (Thermo Scientific).

Another data set has as its system Cdk1. The experiment in a line: Western blot, Cdk1 degradation. Particulars: AtT-20 cells. How it is done:
as §1, §2

Data set [3] has as its system GR (glucocorticoid receptor). Description: Evaluation of GR activity (MTV-Luc reporter). Particulars: AtT-20 cells, 72 hours, in combination with dexamethasone. As for the experimental part:
AtT-20 cells were treated for 72 hours with different doses of (A) 17-AAG, (B) silibinin, or (C) novobiocin. At the end of the treatment, GR activity was measured by transfection of the reporter construct MTV-luc.
AtT-20 cells (3×10^5) were transfected for 3 hours with 1 μg of the MTV-Luc reporter plasmid in 6-well plates. Cell transfection was performed with SuperFect (Qiagen GmbH). After an overnight incubation in culture medium with 10% fetal calf serum, the cells were treated with different HSP90 inhibitors in combination with dexamethasone. Luciferase activity in cell lysates was measured with a Berthold luminometer after addition of luciferin and ATP. Transfection efficiency was determined using the Rous sarcoma virus-β-gal construct. Data are expressed as the ratio of luciferase activity to β-gal activity.

A further data set relates to AtT-20 cells. The experiment in a line: Evaluation of ACTH secretion (RIA). Particulars: for ACTH secretion: 48 hours, plus dexamethasone 100 nM. How it is done: AtT-20 cells were treated for 48 hours with the glucocorticoid dexamethasone (100 nM) plus different doses of 17-AAG or silibinin, as indicated in the figure. At the end of the treatment, ACTH was measured by RIA.
AtT-20 cells were treated for 72 hours with 10 μM silibinin in combination with different doses of octreotide, as indicated in the figure.
AtT-20 cells were seeded in 96-well plates in cell culture medium containing dexamethasone to mimic the high glucocorticoid concentration in the blood of patients with Cushing's disease. At the end of the treatment, the cell culture supernatants were collected and frozen. ACTH secreted into the cell culture medium was measured by radio-immunoassay (RIA) in comparison with known amounts of ACTH standards diluted in the same medium. […] The bound and free fractions were separated by centrifugation with charcoal and the radioactivity was measured in a beta-counter.

For a further data set, the system named is GH3 prolactinoma cells. The experiment in a line: Evaluation of prolactin secretion (RIA). Particulars: 48 hours. As for the experimental part:
10,000 GH3 prolactinoma cells obtained from the American Type Culture Collection (Rockville, Md.) were seeded onto 96-well plates in DMEM with 10% fetal calf serum. After 24 hours the medium was changed and the attached cells were treated with different doses of the HSP90 inhibitors 17-AAG or silibinin, as indicated in FIG. 10. After 48 hours, culture supernatants were collected and the concentration of prolactin was measured by RIA.

Data set [4] concerns GH3 somatotroph adenoma cells. The experiment in a line: Evaluation of growth hormone secretion (RIA). The note with it: 48 hours. How it is done:
10,000 GH3 somatotroph adenoma cells obtained from the American Type Culture Collection (Rockville, Md.) were seeded onto 96-well plates in DMEM with 10% fetal calf serum. After 24 hours the medium was changed and the attached cells were treated with different doses of the HSP90 inhibitors 17-AAG or silibinin, as indicated in the FIG. 11. After 48 hours, culture supernatants were collected and the concentration of growth hormone was measured by RIA.

The next data set concerns GH3 cells. The experiment in a line: Cell-viability assay WST-1 (toxicity).
The mark [5] stands for this setting: WST-1, growth hormone experiment (Example 07).
[6] abbreviates: WST-1, prolactin experiment (Example 06).

Molecules are shown by their SMILES.

Regarding `C=CCNC1=C2C[C@@H](C)C[C@H](OC)[C@H](O)[C@@H](C)/C=C(\C)[C@H](OC(N)=O)[C@@H](OC)/C=C\C=C(/C)C(=O)NC(=CC1=O)C2=O` [17-AAG, 17-N-Allylamino-17-demethoxygeldanamycin], the “proliferation of AtT-20 cells” value in data set [1] is listed as “strongly inhibit the proliferation”. The GR degradation entry in data set [2] was “induces GR degradation”. Moreover, the Cdk1 degradation entry with Cdk1 was “induce degradation of Cdk1”. Also, the “transcriptional activity of GR” value in data set [3] is reported as “inhibited this activity”. In addition, the ACTH secretion result with AtT-20 cells is “has no effect on ACTH secretion”. Further, in the data set on GH3 prolactinoma cells, the prolactin secretion entry is given as “minimally inhibited prolactin secretion only at a concentration of 1 μM”. Further, in data set [4], the growth hormone secretion result was “did not inhibit growth hormone secretion at any of the tested concentrations”. Moreover, the “toxicity for GH3 cells” value with GH3 cells (setting [5]) and with GH3 cells (setting [6]) was “Higher concentrations of 17-AAG were toxic” in each case.

Turning to `CO[C@@H]1[C@@H](OC(N)=O)[C@@H](O)[C@H](Oc2ccc3c(O)c(NC(=O)c4ccc(O)c(CC=C(C)C)c4)c(=O)oc3c2C)OC1(C)C` [novobiocin], the “proliferation of AtT-20 cells” value in data set [1] is given as “strongly inhibit the proliferation”. Moreover, the GR degradation result in data set [2] is “did not produce this effect”. Besides, the Cdk1 degradation result with Cdk1 is given as “induce degradation of Cdk1”. In addition, in data set [3], the “transcriptional activity of GR” value is reported as “increased the transcriptional activity of GR”.

In the case of `COc1cc([C@H]2Oc3cc([C@H]4Oc5cc(O)cc(O)c5C(=O)[C@@H]4O)ccc3O[C@@H]2CO)ccc1O` [silibinin, (2R,3R)-3,5,7-trihydroxy-2-[(2R,3R)-3-(4-hydroxy-3-methoxyphenyl)-2-(hydroxymethyl)-2,3-dihydrobenzo[b][1,4]dioxin-6-yl]chroman-4-one], the “proliferation of AtT-20 cells” value in data set [1] is “strongly inhibit the proliferation”. In addition, in data set [2], the GR degradation result was “did not produce this effect”. Besides, the Cdk1 degradation result in the data set with Cdk1 is recorded as “induce degradation of Cdk1”. In addition, the “transcriptional activity of GR” value in data set [3] is recorded as “increased the transcriptional activity of GR”. For the same molecule, in the data set with AtT-20 cells, the ACTH secretion entry is listed as “inhibits ACTH secretion”. Besides, in the data set on AtT-20 cells (72 hours, 10 μM silibinin plus sub-optimal concentrations of octreotide), the “ACTH secretion in combination with octreotide” value is “increases the inhibition of ACTH secretion”. Besides, in the data set with GH3 prolactinoma cells, the prolactin secretion result was “significantly inhibited the secretion of prolactin”. Besides, the growth hormone secretion entry in data set [4] is “significantly inhibited the secretion of growth hormone”. The “toxicity for GH3 cells” value is on record as “no toxicity was observed, even at high concentrations” with GH3 cells (setting [5]) and “no toxicity was observed, even at high concentrations” with GH3 cells (setting [6]).

The values are drawn from patent publication US9877947B2, “C-terminal HSP90 inhibitors to treat pituitary adenomas” (priority 2013, dated 2018).
